The test deals with Elongator complex protein 1 (ELP1, also referred to as IKBKAP). Description: IKBKAP-HTRF assay (IKBKAP protein in lysates of FD patient-derived fibroblasts). The settings on record: 48 hours incubation, 7-point concentration curve. The format is cell-based, human. In outline:
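Sandwich HTRF with two labelled anti-IKAP antibodies (overnight, 4 °C) measured IKBKAP in lysates of FD patient fibroblasts. Cells were exposed to compound for 48 h at 37 °C (7-point curve, 3.16-fold steps, triplicates). EC2x is the dose doubling IKBKAP versus DMSO control; MFI is sample ΔF divided by vehicle ΔF.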
(In general: Time-resolved FRET reads energy transfer from a long-lived donor to a nearby acceptor.)
On to `Cc1c(C[C@@H](N)C(=O)Nc2ccccn2)sc2c(NCc3ccco3)cc(Cl)nc12` [Compound 134, 3-(5-chloro-7-{[(furan-2-yl)methyl]amino}-3-methylthieno[3,2-b]pyridin-2-yl)-N-pyridin-2-yl-D-alaninamide], for which the “EC2x for IKBKAP protein expression (concentration producing two times the amount of IKBKAP protein vs DMSO vehicle control)” value was “**** (between >0.005 μM and ≤0.02 μM is indicated by four stars (****))”; the “MFI (maximum fold increase in IKBKAP protein abundance relative to the vehicle control)” value was “***** (>4.9 is indicated by five stars (*****))”.

Take `Cc1c(C[C@@H](N)C(=O)Nc2cnccn2)sc2c(NCc3ccco3)cc(Cl)nc12` [Compound 135, 3-(5-chloro-7-{[(furan-2-yl)methyl]amino}-3-methylthieno[3,2-b]pyridin-2-yl)-N-pyrazin-2-yl-D-alaninamide]: the “EC2x for IKBKAP protein expression (concentration producing two times the amount of IKBKAP protein vs DMSO vehicle control)” value was “***** (≤0.005 μM is indicated by five stars (*****))”; the “MFI (maximum fold increase in IKBKAP protein abundance relative to the vehicle control)” value is “**** (between >3.9 and ≤4.9 is indicated by four stars (****))”.

As for `COc1c(C[C@H](C)N)sc2c(NCc3ccco3)cc(Cl)nc12` [Compound 136, 2-[(2S)-2-aminopropyl]-5-chloro-N-[(furan-2-yl)methyl]-3-methoxythieno[3,2-b]pyridin-7-amine], the “EC2x for IKBKAP protein expression (concentration producing two times the amount of IKBKAP protein vs DMSO vehicle control)” value is reported as “***** (≤0.005 μM is indicated by five stars (*****))” and the “MFI (maximum fold increase in IKBKAP protein abundance relative to the vehicle control)” value is recorded as “***** (>4.9 is indicated by five stars (*****))”.

For the compound `COc1csc2c(NCc3ccco3)cc(Cl)nc12` [Compound 137, 5-chloro-N-[(furan-2-yl)methyl]-3-methoxythieno[3,2-b]pyridin-7-amine], the “EC2x for IKBKAP protein expression (concentration producing two times the amount of IKBKAP protein vs DMSO vehicle control)” value was “*** (between >0.02 μM and ≤0.5 μM is indicated by three stars (***))”; the “MFI (maximum fold increase in IKBKAP protein abundance relative to the vehicle control)” value is reported as “***** (>4.9 is indicated by five stars (*****))”.

For the compound `Oc1csc2c(NCc3cccs3)cc(Cl)nc12` [Compound 138, 5-chloro-7-{[(thiophen-2-yl)methyl]amino}thieno[3,2-b]pyridin-3-ol], the “EC2x for IKBKAP protein expression (concentration producing two times the amount of IKBKAP protein vs DMSO vehicle control)” value was “*** (between >0.02 μM and ≤0.5 μM is indicated by three stars (***))”; the “MFI (maximum fold increase in IKBKAP protein abundance relative to the vehicle control)” value was “** (between >1.9 and ≤2.9 is indicated by two stars (**))”.

As to `C[C@H](N)Cc1sc2c(NCc3cccs3)cc(Cl)nc2c1OC(F)F` [Compound 139, 2-[(2S)-2-aminopropyl]-5-chloro-3-(difluoromethoxy)-N-[(thiophen-2-yl)methyl]thieno[3,2-b]pyridin-7-amine], the “EC2x for IKBKAP protein expression (concentration producing two times the amount of IKBKAP protein vs DMSO vehicle control)” value is on record as “***** (≤0.005 μM is indicated by five stars (*****))”; the “MFI (maximum fold increase in IKBKAP protein abundance relative to the vehicle control)” value was “**** (between >3.9 and ≤4.9 is indicated by four stars (****))”.

In the case of `Cc1c(C[C@@H](N)C(=O)Nc2ccncc2)sc2c(NCc3ccco3)cc(Cl)nc12` [Compound 140, 3-(5-chloro-7-{[(furan-2-yl)methyl]amino}-3-methylthieno[3,2-b]pyridin-2-yl)-N-pyridin-4-yl-D-alaninamide], the “EC2x for IKBKAP protein expression (concentration producing two times the amount of IKBKAP protein vs DMSO vehicle control)” value is given as “***** (≤0.005 μM is indicated by five stars (*****))” and the “MFI (maximum fold increase in IKBKAP protein abundance relative to the vehicle control)” value is recorded as “***** (>4.9 is indicated by five stars (*****))”.

Regarding `Cc1c(C[C@@H](N)C(=O)N(C)c2ccccc2)sc2c(NCc3ccco3)cc(Cl)nc12` [Compound 141, 3-(5-chloro-7-{[(furan-2-yl)methyl]amino}-3-methylthieno[3,2-b]pyridin-2-yl)-N-methyl-N-phenyl-D-alaninamide], the “EC2x for IKBKAP protein expression (concentration producing two times the amount of IKBKAP protein vs DMSO vehicle control)” value was “*** (between >0.02 μM and ≤0.5 μM is indicated by three stars (***))”; the “MFI (maximum fold increase in IKBKAP protein abundance relative to the vehicle control)” value is “**** (between >3.9 and ≤4.9 is indicated by four stars (****))”.

In the case of `Cc1ccc(NC(=O)[C@H](N)Cc2sc3c(NCc4ccco4)cc(Cl)nc3c2C)cc1` [Compound 142, 3-(5-chloro-7-{[(furan-2-yl)methyl]amino}-3-methylthieno[3,2-b]pyridin-2-yl)-N-(4-methylphenyl)-D-alaninamide], the “EC2x for IKBKAP protein expression (concentration producing two times the amount of IKBKAP protein vs DMSO vehicle control)” value is “**** (between >0.005 μM and ≤0.02 μM is indicated by four stars (****))”; the “MFI (maximum fold increase in IKBKAP protein abundance relative to the vehicle control)” value is given as “***** (>4.9 is indicated by five stars (*****))”.

`Cc1c(C[C@@H](N)C(=O)Nc2cccc(Cl)c2)sc2c(NCc3ccco3)cc(Cl)nc12` [Compound 143, 3-(5-chloro-7-{[(furan-2-yl)methyl]amino}-3-methylthieno[3,2-b]pyridin-2-yl)-N-(3-chlorophenyl)-D-alaninamide]: the “EC2x for IKBKAP protein expression (concentration producing two times the amount of IKBKAP protein vs DMSO vehicle control)” value was “*** (between >0.02 μM and ≤0.5 μM is indicated by three stars (***))”; the “MFI (maximum fold increase in IKBKAP protein abundance relative to the vehicle control)” value was “***** (>4.9 is indicated by five stars (*****))”.

Turning to `COc1cccc(NC(=O)[C@H](N)Cc2sc3c(NCc4ccco4)cc(Cl)nc3c2C)c1` [Compound 144, 3-(5-chloro-7-{[(furan-2-yl)methyl]amino}-3-methylthieno[3,2-b]pyridin-2-yl)-N-(3-methoxyphenyl)-D-alaninamide], the “EC2x for IKBKAP protein expression (concentration producing two times the amount of IKBKAP protein vs DMSO vehicle control)” value was “**** (between >0.005 μM and ≤0.02 μM is indicated by four stars (****))”; the “MFI (maximum fold increase in IKBKAP protein abundance relative to the vehicle control)” value is “***** (>4.9 is indicated by five stars (*****))”.

For the compound `Cc1c(C[C@@H](N)C(=O)Nc2ccnn2C)sc2c(NCc3ccco3)cc(Cl)nc12` [Compound 145, 3-(5-chloro-7-{[(furan-2-yl)methyl]amino}-3-methylthieno[3,2-b]pyridin-2-yl)-N-(1-methyl-1H-pyrazol-5-yl)-D-alaninamide], the “EC2x for IKBKAP protein expression (concentration producing two times the amount of IKBKAP protein vs DMSO vehicle control)” value is “*** (between >0.02 μM and ≤0.5 μM is indicated by three stars (***))”; the “MFI (maximum fold increase in IKBKAP protein abundance relative to the vehicle control)” value is reported as “***** (>4.9 is indicated by five stars (*****))”.

As to `Cc1c(C(C)CO)sc2c(NCc3ccco3)cc(Cl)nc12` (stereo not shown) [Compound 146, 2-(5-chloro-7-{[(furan-2-yl)methyl]amino}-3-methylthieno[3,2-b]pyridin-2-yl)propan-1-ol], the “EC2x for IKBKAP protein expression (concentration producing two times the amount of IKBKAP protein vs DMSO vehicle control)” value is on record as “* (An EC2x>1 μM is indicated by one star (*))” and the “MFI (maximum fold increase in IKBKAP protein abundance relative to the vehicle control)” value was “* (An MFI≤1.9 is indicated by one star (*))”.

Consider `Cc1c(C(C)(O)CO)sc2c(NCc3ccco3)cc(Cl)nc12` (stereo not shown) [Compound 147, 2-(5-chloro-7-{[(furan-2-yl)methyl]amino}-3-methylthieno[3,2-b]pyridin-2-yl)propane-1,2-diol], for which the “EC2x for IKBKAP protein expression (concentration producing two times the amount of IKBKAP protein vs DMSO vehicle control)” value was “*** (between >0.02 μM and ≤0.5 μM is indicated by three stars (***))”; the “MFI (maximum fold increase in IKBKAP protein abundance relative to the vehicle control)” value is “** (between >1.9 and ≤2.9 is indicated by two stars (**))”.

On to `Cc1c(C(C)CN)sc2c(NCc3ccco3)cc(Cl)nc12` (stereo not shown) [Compound 148, 2-(1-aminopropan-2-yl)-5-chloro-N-[(furan-2-yl)methyl]-3-methylthieno[3,2-b]pyridin-7-amine], for which the “EC2x for IKBKAP protein expression (concentration producing two times the amount of IKBKAP protein vs DMSO vehicle control)” value is listed as “***** (≤0.005 μM is indicated by five stars (*****))”; the “MFI (maximum fold increase in IKBKAP protein abundance relative to the vehicle control)” value is “**** (between >3.9 and ≤4.9 is indicated by four stars (****))”.

For `FC(F)Oc1csc2c(NCc3cccs3)cc(Cl)nc12` [Compound 149, 5-chloro-3-(difluoromethoxy)-N-[(thiophen-2-yl)methyl]thieno[3,2-b]pyridin-7-amine], the “EC2x for IKBKAP protein expression (concentration producing two times the amount of IKBKAP protein vs DMSO vehicle control)” value is “*** (between >0.02 μM and ≤0.5 μM is indicated by three stars (***))”; the “MFI (maximum fold increase in IKBKAP protein abundance relative to the vehicle control)” value is “**** (between >3.9 and ≤4.9 is indicated by four stars (****))”.

In the case of `Cc1c([C@H](C)[C@H](C)N)sc2c(NCc3ccco3)cc(Cl)nc12` [Compound 150, 2-[(2R,3S)-3-aminobutan-2-yl]-5-chloro-N-[(furan-2-yl)methyl]-3-methylthieno[3,2-b]pyridin-7-amine], the “EC2x for IKBKAP protein expression (concentration producing two times the amount of IKBKAP protein vs DMSO vehicle control)” value is “***** (≤0.005 μM is indicated by five stars (*****))” and the “MFI (maximum fold increase in IKBKAP protein abundance relative to the vehicle control)” value is on record as “***** (>4.9 is indicated by five stars (*****))”.

`Cc1c([C@@H](C)[C@H](C)N)sc2c(NCc3ccco3)cc(Cl)nc12` [Compound 151, 2-[(2S,3S)-3-aminobutan-2-yl]-5-chloro-N-[(furan-2-yl)methyl]-3-methylthieno[3,2-b]pyridin-7-amine]: the “EC2x for IKBKAP protein expression (concentration producing two times the amount of IKBKAP protein vs DMSO vehicle control)” value was “*** (between >0.02 μM and ≤0.5 μM is indicated by three stars (***))”; the “MFI (maximum fold increase in IKBKAP protein abundance relative to the vehicle control)” value was “** (between >1.9 and ≤2.9 is indicated by two stars (**))”.

On to `Cc1c(CCN)sc2c(NCc3ccco3)cc(Cl)nc12` [Compound 152, 2-(2-aminoethyl)-5-chloro-N-[(furan-2-yl)methyl]-3-methylthieno[3,2-b]pyridin-7-amine], for which the “EC2x for IKBKAP protein expression (concentration producing two times the amount of IKBKAP protein vs DMSO vehicle control)” value was “*** (between >0.02 μM and ≤0.5 μM is indicated by three stars (***))”; the “MFI (maximum fold increase in IKBKAP protein abundance relative to the vehicle control)” value was “** (between >1.9 and ≤2.9 is indicated by two stars (**))”.

For the compound `C[C@H](N)C(O)c1sc2c(NCc3ccco3)cc(Cl)nc2c1Br` (stereo partly drawn) [Compound 153, (2S)-2-amino-1-(3-bromo-5-chloro-7-{[(furan-2-yl)methyl]amino}thieno[3,2-b]pyridin-2-yl)propan-1-ol], the “EC2x for IKBKAP protein expression (concentration producing two times the amount of IKBKAP protein vs DMSO vehicle control)” value is “*** (between >0.02 μM and ≤0.5 μM is indicated by three stars (***))”; the “MFI (maximum fold increase in IKBKAP protein abundance relative to the vehicle control)” value was “** (between >1.9 and ≤2.9 is indicated by two stars (**))”.

These data come from US12384797B2, “Thioeno[3,2-b] pyridin-7-amine compounds for treating familial dysautonomia” (PTC THERAPEUTICS, INC., priority 2019, dated 2025).
